Measurements: patent US20220389422A1, “IONIZABLE CATIONIC LIPIDS FOR RNA DELIVERY” (Arcturus Therapeutics, Inc., priority 2021, published 2022)

Key:
[1] = Measured pKa; format: physicochemical; conditions: read-out: (pKa) measured pKa in parenthesis
[2] = test system: factor VII; experiment: Factor VII knock down evaluation (LNP with FVII siRNA); format: in vivo, Balb/C mice; conditions: intravenous, plasma FVII after 48 h, relative to saline-treated controls; for FVII KD % _ 0.01 mpk: 0.01 mg/kg; for FVII KD % _ 0.03 mpk: 0.03 mg/kg
Method: Lipid formulations comprising a FVII siRNA further described below were evaluated for their knockdown activity using the protocol of this example. In the FVII evaluation, seven to eight week-old, female Balb/C mice were purchased from Charles River Laboratories (Hollister, Calif.). The mice were held in a pathogen-free environment and all procedures involving the mice were performed in accordance with guidelines established by the Institutional Animal Care and Use Committee (IACUC). Lipid nanoparticles containing factor VII siRNA were administered intravenously at a dosing volume of 10 mL/kg and two dose levels (0.03 and 0.01 mg/kg). After 48 h, the mice were anesthetized with isoflurane and blood was collected retro-orbitally into Microtainer® tubes coated with 0.109 M sodium citrate buffer (BD Biosciences, San Diego, Calif.) and processed to plasma. Plasma specimens were tested for factor VII levels immediately or stored at −80° C. for later analysis. Measurement of FVII protein in plasma was determined using the colorimetric Biophen VII assay kit (Aniara Diagnostica, USA). Absorbance was measured at 405 nm and a calibration curve was generated using the serially diluted control plasma to determine levels of factor VII in plasma from treated animals, relative to the saline-treated control animals.

[3] = test system: hEPO mRNA; experiment: hEPO mRNA expression evaluation (hEPO-LNPs); format: in vivo, Balb/c mice; conditions: intravenous (tail vein), serum hEPO after 6 hr, ELISA; for EPO expression (ng/mL)_0.03 mpk: 0.03 mg/kg; for EPO expression (ng/mL)_0.1 mpk: 0.1 mg/kg
Method: Protocol for hEPO mRNA Expression Evaluation Lipid formulations comprising a hEPO mRNA below were evaluated for their ability to express hEPO in vivo according to the protocol of this example. All animal experiments were conducted using institutionally-approved protocols (IACUC). In this protocol, female Balb/c mice at least 6-8 weeks of age were purchased from Charles River Laboratory. The mice were intravenously injected with hEPO-LNPs via the tail vein with one of two dose levels of hEPO (0.1 and 0.03 mg/kg). After 6 hr, blood was collected with serum separation tubes, and the serum was isolated by centrifugation. Serum hEPO levels were then measured using an ELISA assay (Human Erythropoietin Quantikine IVD ELISA Kit, R&D Systems, Minneapolis, Md.).

[4] = In vivo biodegradability assay (lipid in mouse liver); parameters: species or system mice; conditions: for concentration at 48 h: 0.03 mg/Kg dose, read-out: In vivo degradability ng/g of tissue at 48 h_0.03 mpk; for In vivo degradability ng/tissue at 48 h_0.1 mpk: 48 h, 0.1 mg/Kg dose
Method: In vivo biodegradability assay was performed to assess the biodegradability of lipids in the LNP. Briefly, mice were injected with either 0.1 or 0.03 mg/Kg dose and after 24 or 48 hours mice livers were collected. To measure the concentration of lipids in the mouse liver, liver samples were homogenized in appropriate buffer in 1-10 dilution and mixed with the same amount of stabilized plasma. The samples were then mixed with organic solvents spiked with internal standard to precipitate proteins. After centrifugation, supernatant was diluted further with organic solvent before sample analysis by LC-MS. In LC-MS analysis, positive electrospray ionization was used, and multiple reaction monitoring (MRM) parameters were set up to specifically target the lipid analyte and internal standard. Calibration standards were prepared in stabilized plasma and mixed with same amount of homogenization buffer before protein precipitation. Quality control samples with known amounts of lipid was prepared in blank liver homogenate to monitor the precision and accuracy of the assay.

[5] = Mouse plasma stability; format: in vitro ADME, CD-1 mouse; conditions: 37° C., starting concentration 1 μM, 120 min, LC-MS
Method: Lipid stock solution was prepared by dissolution of the lipid in isopropanol at the concentration of 5 mg/mL. A requisite volume of the lipid-isopropanol solution was then diluted to 100 μM concentration at a total volume of 1.0 mL with in 50:50 (v/v) ethanol/water. Ten microliters of this 100 μM solution was spiked into 1.0 mL of mouse plasma (BioIVT, Cat. No.: MSE00PLNHUNN, CD-1 mouse, anticoagulant: sodium heparin, not filtered) that was pre-warmed to 37° C. and was stirred at 50 rpm with a magnetic stir bar. The starting concentration of lipids in plasma was thus 1 μM. At time points 0, 15, 30, 45, 60 and 120 min, 0.1 mL of the plasma was withdrawn from the reaction mixture and the protein was precipitated by adding 0.9 mL of ice-cold 4:1 (v/v) acetonitrile/methanol with 1 μg/mL of a selected internal standard lipid added. After filtration through a 0.45 micron 96-well filtering plate, the filtrates were analyzed by LC-MS (Thermo Fisher's Vanquish UHPLC-LTQ XL linear ion trap Mass Spectrometer); Waters XBridge BEH Shield RP18 2.5 µm (2.1×100 mm) column with its matching guard column. Mobile phase A was 0.1% formic acid in water, and mobile phase B was 0.1% formic acid in 1:1 (v/v) acetonitrile/methanol. Flow rate was […]. Elution gradient was: Time 0-1 min: 10% B; 1-6 min: 10%-95% B; 6-8.5 min: 95% B; 8.5-9 min: 95%-10% B; 9-10 min: 10% B. Mass spectrometry was in positive scanning mode from 600-1100 m/z. The peak of the molecular ion of the lipids was integrated in the extracted ion chromatography
(XIC) using Xcalibur software (Thermo Fisher). The relative peak area compared to T=0, after normalization by the peak area of the internal standard, was used as the percentage of the lipid remaining at each time point. T1/2 values were calculated using the first-order decay model.

Row | SMILES | pKa [1] | concentration at 48 h [4] [ng/g] | In vivo degradability ng/tissue at 48 h_0.1 mpk [4] [ng/tissue] | Percent of lipid remaining in mouse plasma after 2 h [5] [%] | FVII KD % _ 0.01 mpk [2] [%] | FVII KD % _ 0.03 mpk [2] [%] | EPO expression (ng/mL)_0.03 mpk [3] [ng/mL] | EPO expression (ng/mL)_0.1 mpk [3] [ng/mL]
1 | CCCCCCCC(CCCCCCC)OC(=O)CCCC(CCCC(=O)OC(CCCCCCC)CCCCCCC)OC(=O)CCCN(C)C [ATX-193, 1,9-bis(pentadecan-8-yl)5-[[4-(dimethylamino)butanoyl]oxy] nonanedioate] | 6.35 |  |  |  | 95.6 | 100 | 264 | 498
2 | CCCCCCCC(CCCCCCC)OC(=O)CCCC(CCCC(=O)OC(CCCCCCC)CCCCCCC)COC(=O)CCCN(C)C [ATX-200, 1,9-bis(pentadecan-8-yl) 5-([[4-(dimethylamino)butanoyl]oxy]methyl) nonanedioate] | 6.78 |  |  |  | 87.1 | 97.5 | 494 | 828
3 | CCCCCCCC(CCCCCCC)OC(=O)CCC(CCC(=O)OC(CCCCCCC)CCCCCCC)COC(=O)CCCN(C)C [ATX-201] | 6.74 |  |  |  | 87.4 | 97.5 | 523 | 680
4 | CCCCCCCC(CCCCCCC)OC(=O)CCCC(CCCC(=O)OC(CCCCCCC)CCCCCCC)SC(=O)CCCN(C)C [ATX-202] | 6.17 |  |  |  | 61.42 | 83.22 | 447 | 531
5 | CCCCCCC(CCCCCC)OC(=O)CCCCCC(CCCCCC(=O)OC(CCCCCC)CCCCCC)OC(=O)CCCN(C)C [ATX-209] |  | 0 | 647 | 80 | 65.7 | 90.6 | 65 | 290
6 | CCCCCCCC(CCCCCCC)COC(=O)CCCC(CCCC(=O)OC(CCCCCCC)CCCCCCC)OC(=O)CCCN(C)C (centres unmarked) [ATX-232] |  |  |  |  | 74 | 90 | 2115 | 510

Now from value to molecule, other results behind:

Row | pKa [1] | concentration at 48 h [4] [ng/g] | In vivo degradability ng/tissue at 48 h_0.1 mpk [4] [ng/tissue] | Percent of lipid remaining in mouse plasma after 2 h [5] [%] | SMILES | FVII KD % _ 0.01 mpk [2] [%] | FVII KD % _ 0.03 mpk [2] [%] | EPO expression (ng/mL)_0.03 mpk [3] [ng/mL] | EPO expression (ng/mL)_0.1 mpk [3] [ng/mL]
7 | 6.53 |  |  |  | CCCCCCCC(CCCCCCC)OC(=O)CCCC(CCCC(=O)OC(CCCCC)CCCCC)OC(=O)CCCN(C)C (centres unmarked) [ATX-210] | 87 | 97.65 | 329 | 662
8 |  | 0 | 0 | 89 | CCCCCCC(CCCCCC)COC(=O)CCCCCC(CCCCCC(=O)OCC(CCCCCC)CCCCCC)OC(=O)CCCN(C)C [ATX-231] | 72 | 86 | 1706 | 5446
9 |  | 566 | 2613 | 91 | CCCCCC(CC)C(=O)OCCCCCCCCCC(CCCCCCCCCOC(=O)C(CC)CCCCC)OC(=O)CCCN(C)C (centres unmarked) [Compound-10111, reference compound] | 89 | 95 | 105 | 213
